Data published in patent US7807400B2, “Methods for identifying chemical modulators of Ras superfamily GTPase activity” (The University of North Carolina at Chapel Hill, priority 2004, dated 2010).
“Also recorded” adds a separate entry of the source.

Tests used:
Assay type in all cases: biochemical
Rac1 = Rac1 (Homo sapiens, UniProt P63000); test: complementary radiolabeled nucleotide exchange assay on Rac1
H-Ras = H-Ras (Homo sapiens, UniProt P01112); test: complementary radiolabeled nucleotide exchange assay on H-Ras
Sequence of H-Ras (P01112 whole entry, species assumed): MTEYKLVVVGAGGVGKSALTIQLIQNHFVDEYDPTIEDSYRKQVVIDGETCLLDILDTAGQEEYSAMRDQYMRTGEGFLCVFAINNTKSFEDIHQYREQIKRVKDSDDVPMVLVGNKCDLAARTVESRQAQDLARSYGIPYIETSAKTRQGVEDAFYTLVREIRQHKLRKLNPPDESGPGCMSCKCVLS

RhoA = RhoA (Homo sapiens, UniProt P61586); test: complementary radiolabeled nucleotide exchange assay on RhoA
Sequence of RhoA (P61586 whole entry, species assumed): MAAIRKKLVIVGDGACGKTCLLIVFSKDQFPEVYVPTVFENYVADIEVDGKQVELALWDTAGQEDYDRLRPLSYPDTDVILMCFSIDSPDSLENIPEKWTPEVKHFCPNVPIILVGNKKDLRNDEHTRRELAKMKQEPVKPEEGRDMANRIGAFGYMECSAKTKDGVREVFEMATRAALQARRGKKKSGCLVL

[1] = system: Tiam1-mediated activation of Rac1; test: fluorescence based guanine nucleotide exchange assay, Tiam1-mediated activation of Rac1
Cdc42 = Cdc42 (Homo sapiens, UniProt P60953); test: complementary radiolabeled nucleotide exchange assay on Cdc42
Sequence of Cdc42 (P60953 whole entry, species assumed): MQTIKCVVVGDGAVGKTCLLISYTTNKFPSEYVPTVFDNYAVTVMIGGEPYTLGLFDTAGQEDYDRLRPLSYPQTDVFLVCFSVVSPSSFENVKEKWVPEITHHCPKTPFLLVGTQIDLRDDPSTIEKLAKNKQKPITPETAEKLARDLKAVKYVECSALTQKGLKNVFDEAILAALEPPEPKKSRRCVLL

[2] = molecular target: Dbs-mediated activation of RhoA (Homo sapiens, UniProt P61586); test: fluorescence guanine nucleotide exchange reaction, Dbs-mediated activation of RhoA; details: fluorescence after addition of GEF, versus DMSO vehicle control
Sequence of Dbs-mediated activation of RhoA (P61586 whole entry): as the sequence (P61586 whole entry, species assumed) above

Rap2A = molecular target: T1, Rap2A (Homo sapiens, UniProt P10114); test: intrinsic guanine nucleotide exchange of Gpp(NH)p-preloaded Rap2A with mant-GTP (FRET); details: 1 μM RGS14 RBD protein, 100 nM Rap2A, 1 μM mant-GTP, 37° C., compared to Rap2A alone, p<0.05
T1 sequence (P10114 1-183): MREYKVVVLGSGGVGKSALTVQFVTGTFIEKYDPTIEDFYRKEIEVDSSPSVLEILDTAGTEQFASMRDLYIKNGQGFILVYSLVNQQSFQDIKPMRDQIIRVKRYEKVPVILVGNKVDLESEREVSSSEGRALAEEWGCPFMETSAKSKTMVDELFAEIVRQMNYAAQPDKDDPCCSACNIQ
Description: The intrinsic guanine nucleotide exchange rate of Gpp(NH)p-preloaded Rap2A (100 nM) was monitored with mant-GTP in the absence (solid) or presence (dashed) of the RBD tandem repeat (aa 300-447) from the putative Rap2A effector rat RGS14 (1 μM). In this example, 1 mL cuvettes were loaded with 1 μM mant-GTP (in 50 mM Tris pH 7.5, 5 mM MgCl2, 1 mM EDTA at 37° C.) and allowed to equilibrate prior to the addition of 100 nM Rap2A (preloaded with Gpp(NH)p) in the presence or absence of 1 μM of the RGS14 RBD protein. The dissociation of Gpp(NH)p was then measured by excitation of the tryptophan residue. The FRET-mediated excitation of bound mant-GTP was also measured. Binding of the RGS14 RBD repeat region to activated Rap2A prevents the loss of guanine nucleotide from the G-protein, thereby effectively acting as a guanine nucleotide dissociation inhibitor (GDI). Further, the incubation of Rap2A with the RGS14 tandem RBD repeat region slowed the rate of spontaneous nucleotide exchange by about 30% (p<0.05) when compared to that of Rap2A alone. Curves were fit as single exponential functions using GraphPad Prism™ (GraphPad Software, Inc.). […]

In the case of `O=C(O)C=Cc1ccc[c]([SbH]([O-])([OH])[OH])c1` [NSC#13778, 3-(3-(dihydroxy(oxido)stibino)phenyl)acrylic acid], the “activity in complementary radiolabeled assay (Rac1)” value (Rac1) is reported as “confirmed”, the “enhancement of nucleotide exchange on H-Ras” value (H-Ras) is reported as “does not enhance nucleotide exchange” and the “enhancement of nucleotide exchange on RhoA” value (RhoA) is reported as “does not enhance nucleotide exchange”. The “effect on GEF-mediated nucleotide exchange on Rac1” value ([1]; NCI Diversity Set screen, 96-well kinetic format, secondary studies in 1 mL total volume) was “accelerated kinetics; also recorded: enhancing Tiam1-mediated Rac1 activation in a dose-dependent manner; also recorded: accelerates GEF-mediated nucleotide exchange on Rac1 in a dose-dependent manner”, the EC50 ([1]; acceleration of GEF-mediated nucleotide exchange on Rac1) was roughly 4 µM and the “enhancement of nucleotide exchange on Cdc42” value (Cdc42) was “does not enhance nucleotide exchange”.

For `Nc1nc2c(ncn2[C@@H]2O[C@H](COP(=O)(O)OP(=O)(O)O)[C@@H](O)[C@H]2O)c(=O)[nH]1` [GDP], the “effect on Dbs-mediated RhoA activation / guanine nucleotide exchange” value [2] was “inhibit guanine nucleotide exchange”.

B1: RGS14 tandem RBD repeat region: RBD tandem repeat (aa 300-447) from the putative Rap2A effector rat RGS14 (protein, UniProt O08773 300-447, looked up, fragment)
chain: KYCCVYLPDGTASLALARPGLTIRDMLAGICEKRGLSLPDIKVYLVGKEQKALVLDQDCTVLADQEVRLENRITFQLELVGLERVVRISAKPTKRLQEALQPILAKHGLSLDQVVLHRPGEKQLVDLENLVSSVASQTLVLDTLPDAK
In the case of B1, the “slowing of the rate of spontaneous nucleotide exchange of Rap2A” value (Rap2A) is reported as “about 30%”.
